Assay type in all cases: cell-based
Assay [1] deals with human CD4+ T cells. The experiment in a line: Cytokines produced by human CD4+ T cells stimulated with PMA/ionomycin. The following applies: 10 μM compound, PMA/ionomycin 20 h. From the text:
Freshly isolated human peripheral blood mononuclear cells (PBMCs) were purchased from Astarte Biologics (Redmond, Wash.). CD4+ T cells were isolated from the PBMCs using the EasySep Negative Selection Human CD4+ T Cell Enrichment Kit (Stemcell Technologies, Vancouver, Canada) according to manufacturer's instructions briefly as follows: Unwanted cells were specifically labeled with a cocktail of bispecific tetrameric antibody complexes (TAC) against dextran and cell surface antigens (CD8, CD14, CD16, CD19, CD20, CD36, CD56, CD66b, CD123, TCRγ/δ, glycophorin A). Labeled cells were then targeted for removal by incubation with dextran-coated magnetic particles, leaving the desired CD4+ T cells.
Human CD4+ T cells, isolated as shown in protocol A, were seeded at 2e6 cells/ml in RPMI 1640 containing 10% (v/v) charcoal-dextran treated, heat inactivated FBS (Omega Scientific, Tarzana, Calif.), 0.05 mM 2-Mercaptoethanol (Sigma-Aldrich, St. Louis, Mo.), and 1×Pen/Strep Amphotericin B (Lonza, Allendale, N.J.). Cells were pre-treated with test compounds (10 μM) for 1 h at 37° C. in a humidified atmosphere at 5% CO2. Cells were then stimulated with 50 ng/ml phorbol 12-myristate 13-acetate (PMA)(Sigma-Aldrich, St. Louis, Mo.)+1 μg/ml ionomycin (Life Technologies, Grand Island, N.Y.) for 20 h at 37° C. in a humidified atmosphere at 5% CO2. Supernatant was collected and analyzed using Bio-Plex Pro Human Th17 Cytokine 15-Plex Panel (Bio-Rad Laboratories, Hercules, Calif.) as per manufacturer's protocols. Magnetic beads were read on the Bio-Plex MAGPIX multiplex reader instrument using the accompanying xPONENT 4.2 acquisition software (Bio-Rad Laboratories, Hercules, Calif.). Data were analyzed via the Bio-Plex Manager software v6.1 (Bio-Rad Laboratories).
IL-1β, IL-2, IL-7, and IL-12 (p70) were below the limit of detection under conditions used. The concentrations of the observed analytes of the DMSO control, from top to bottom as listed, are as follows: 31, 585, 24178, 22, 48, 91, 728, 94, 156, 705, 15, 1045, 5501 pg/ml.

The test system of assay [2] is immortalized normal human bronchial epithelial BEAS-2B cells. The experiment in a line: IL-17A- or IL-17F-mediated cytokine response by BEAS-2B cells. The following applies: 48 h. As to the method:
The virally immortalized, normal human bronchial epithelial cell line BEAS-2B was purchased from ATCC (Manassas, Va.). Primary bronchial epithelial cells isolated from a patient diagnosed with asthma were obtained from Lonza (Allendale, N.J.). Both cells were maintained in complete Bronchial Epithelial Cell Growth Medium (BEGM) (Lonza). Cells were seeded at 1e5 cells/ml and incubated at 37° C. in a humidified atmosphere at 5% CO2 overnight to adhere. Cells were pre-treated with test compounds (10 μM down by ⅕ in a 3- or 4-point serial dilution series) for 1 h at 37° C. in a humidified atmosphere at 5% CO2. DMSO at a final concentration of 0.1% served as the non-inhibited control. Budesonide (Selleck Chemicals, Houston, Tex.), a clinically approved glucocorticoid steroid for the treatment of asthma, was tested as a positive control at 0.25 μM. Cells were stimulated with 50 ng/ml of either human recombinant IL-17A or IL-17F (eBioscience, San Diego, Calif.), for 48 h. Supernatant was then collected and analyzed for cytokine concentrations using the Bio-Plex Pro Human Cytokine 17-Plex Panel (Bio-Rad Laboratories, Hercules, Calif.) according to the manufacturer's instructions. Magnetic beads were measured on the Bio-Plex MAGPIX multiplex reader instrument using the accompanying xPONENT 4.2 acquisition software (Bio-Rad Laboratories). Data were analyzed via the Bio-Plex Manager software v6.1 (Bio-Rad Laboratories). For the primary asthmatic bronchial epithelial cells, five (+IL-17F) to thirteen (+IL-17A) cytokines were in range of detection under the conditions used. […] Select cytokines were analyzed for comparison using the BEAS-2B cell line.

The test system of assay [3] is diseased primary human lung fibroblasts. The experiment in a line: Cytokine response by primary diseased human lung fibroblasts stimulated with IL-17A or IL-17F. Conditions: Fibroblast, 48 h. As to the method:
Primary lung fibroblasts isolated from a patient diagnosed with asthma were obtained from Lonza (Allendale, N.J.) and maintained in FGM-2 fibroblast growth medium (Lonza). Cells were seeded at 1e5 cells/ml and incubated at 37° C. in a humidified atmosphere at 5% CO2 overnight to adhere. Cells were pre-treated with test compounds (10 μM down by ⅕ in a 3- or 4-point serial dilution series) for 1 h at 37° C. in a humidified atmosphere at 5% CO2. DMSO at a final concentration of 0.1% served as the non-inhibited control. Cells were stimulated with 50 ng/ml of either human recombinant IL-17A or IL-17F (eBioscience, San Diego, Calif.), for 48 h. Supernatant was then collected and analyzed for cytokine concentrations using the Bio-Plex Pro Human Cytokine 17-Plex Panel (Bio-Rad Laboratories, Hercules, Calif.) according to the manufacturer's instructions. Magnetic beads were measured on the Bio-Plex MAGPIX multiplex reader instrument using the accompanying xPONENT 4.2 acquisition software (Bio-Rad Laboratories). Data were analyzed via the Bio-Plex Manager software v6.1 (Bio-Rad Laboratories). Only four (+IL-17F) to six (+IL-17A) cytokines were in range of detection under the conditions used.
G-CSF concentrations were below the limit of detection when cells were stimulated with IL-17F.

The mark [4] stands for this setting: +50 ng/ml IL-17A, read-out: EC50 values (μM), IL-6.
Setting [5] is: +50 ng/ml IL-17A, read-out: EC50 values (μM), IL-8.
Setting [6] is: +50 ng/ml IL-17F, read-out: EC50 values (μM), IL-6.
Where [7] appears, read: +50 ng/ml IL-17F, read-out: EC50 values (μM), IL-8.

Among the data in US20170008888A1 (KYORIN PHARMACEUTICAL CO., LTD., priority 2014, published 2017) are inhibition and EC50 values, retold here.

Read-outs that look alike come from different tables or passages of the source.

Regarding `CCOc1cc(C(=O)N2CCC(N3CCN(C)CC3)CC2)ccc1Nc1cc2c(cn1)N(C)C(=O)c1ccccc1N2C` [Compound 61], the inhibition – broadly, the change of the read-out against control, counted positive when it falls – at 10 µM in assay [1] (read-out: Percent inhibition of G-CSF (relative to DMSO control)) was 25.3%; in assay [1] (read-out: Percent inhibition of GM-CSF (relative to DMSO control)) it was 96.6%; in assay [1] (read-out: Percent inhibition of IFNγ (relative to DMSO control)), -11.8%; in assay [1] (read-out: Percent inhibition of IL-4 (relative to DMSO control)), -7.7%; in assay [1] (read-out: Percent inhibition of IL-5 (relative to DMSO control)), 21.9%; in assay [1] (read-out: Percent inhibition of IL-6 (relative to DMSO control)) it was 85.8%. Further, the inhibition at 10 µM in assay [1] (read-out: Percent inhibition of IL-10 (relative to DMSO control)) was 97.6%; in assay [1] (read-out: Percent inhibition of IL-13 (relative to DMSO control)), 0.6%; in assay [1] (read-out: Percent inhibition of IL-17A (relative to DMSO control)) it was 45.4%; in assay [1] (read-out: Percent inhibition of MCP-1 (relative to DMSO control)) it was 65.5%; in assay [1] (read-out: Percent inhibition of MIP-1β (relative to DMSO control)), 59.2%; in assay [1] (read-out: Percent inhibition of TNFα (relative to DMSO control)), 50.9%. In addition, the EC50 (usually the midpoint of the concentration-response curve) came out at 0.68 µM in assay [2] (setting [4]); 0.42 µM in assay [2] (setting [5]); 0.42 µM in assay [2] (setting [6]); 0.51 µM in assay [2] (setting [7]); 1.99 µM in assay [3] (+50 ng/ml IL-17A, read-out: EC50 values (μM), G-CSF); 6.98 µM in assay [3] (setting [4]). For the same molecule, the EC50 in assay [3] (setting [5]) stood at 0.54 µM; in assay [3] (+50 ng/ml IL-17A, read-out: EC50 values (μM), MCP-1) it was 1.33 µM; in assay [3] (setting [6]), 4.45 µM; in assay [3] (setting [7]), 0.45 µM; in assay [3] (+50 ng/ml IL-17F, read-out: EC50 values (μM), MCP-1), 1.57 µM.
